This assay has as its target CDK4 (Homo sapiens, UniProt P11802+Q16531). Kind of assay: CDK4 percentage degradation in Calu-1 cells (Table 6). Type of assay: cell-based. More on the design: Cells that express cyclin D1-3 and CDK4/6 proteins were treated with heterobifunctional compounds; endogenous in cells; host or cells: Calu-1. The settings on record: 16 hours; for inhibition at 0.04 µM: 40 nM; for inhibition at 0.2 µM: 200 nM. In a few lines: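 Percentage degradation of Cyclin D1 and CDK4 derived from densitometry of ECL Western blots on lysates of Calu-1 cells. Treatment was 16 h with compound at either 40 nM or 200 nM.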

Chain of CDK4 (P11802 2-303 limits assumed): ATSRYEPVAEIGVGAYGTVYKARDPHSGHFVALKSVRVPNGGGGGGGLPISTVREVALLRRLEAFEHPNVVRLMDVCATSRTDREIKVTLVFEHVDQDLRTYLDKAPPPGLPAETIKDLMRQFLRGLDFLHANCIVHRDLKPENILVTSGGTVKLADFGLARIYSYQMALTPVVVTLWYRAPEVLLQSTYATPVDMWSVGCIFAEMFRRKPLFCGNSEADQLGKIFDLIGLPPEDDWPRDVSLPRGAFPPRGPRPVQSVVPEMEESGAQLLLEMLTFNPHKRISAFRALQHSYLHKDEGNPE
Chain of CDK4 (P24385 whole entry partner): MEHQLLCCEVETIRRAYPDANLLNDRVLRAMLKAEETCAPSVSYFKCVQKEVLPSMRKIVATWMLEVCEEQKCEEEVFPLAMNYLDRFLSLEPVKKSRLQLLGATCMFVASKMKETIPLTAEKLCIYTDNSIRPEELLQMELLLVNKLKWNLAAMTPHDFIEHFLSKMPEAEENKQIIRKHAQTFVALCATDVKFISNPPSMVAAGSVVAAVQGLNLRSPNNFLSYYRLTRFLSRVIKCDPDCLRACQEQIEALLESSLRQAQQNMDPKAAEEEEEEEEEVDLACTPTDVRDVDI
Chain of CDK4 (Q16531 2-1140 limits assumed): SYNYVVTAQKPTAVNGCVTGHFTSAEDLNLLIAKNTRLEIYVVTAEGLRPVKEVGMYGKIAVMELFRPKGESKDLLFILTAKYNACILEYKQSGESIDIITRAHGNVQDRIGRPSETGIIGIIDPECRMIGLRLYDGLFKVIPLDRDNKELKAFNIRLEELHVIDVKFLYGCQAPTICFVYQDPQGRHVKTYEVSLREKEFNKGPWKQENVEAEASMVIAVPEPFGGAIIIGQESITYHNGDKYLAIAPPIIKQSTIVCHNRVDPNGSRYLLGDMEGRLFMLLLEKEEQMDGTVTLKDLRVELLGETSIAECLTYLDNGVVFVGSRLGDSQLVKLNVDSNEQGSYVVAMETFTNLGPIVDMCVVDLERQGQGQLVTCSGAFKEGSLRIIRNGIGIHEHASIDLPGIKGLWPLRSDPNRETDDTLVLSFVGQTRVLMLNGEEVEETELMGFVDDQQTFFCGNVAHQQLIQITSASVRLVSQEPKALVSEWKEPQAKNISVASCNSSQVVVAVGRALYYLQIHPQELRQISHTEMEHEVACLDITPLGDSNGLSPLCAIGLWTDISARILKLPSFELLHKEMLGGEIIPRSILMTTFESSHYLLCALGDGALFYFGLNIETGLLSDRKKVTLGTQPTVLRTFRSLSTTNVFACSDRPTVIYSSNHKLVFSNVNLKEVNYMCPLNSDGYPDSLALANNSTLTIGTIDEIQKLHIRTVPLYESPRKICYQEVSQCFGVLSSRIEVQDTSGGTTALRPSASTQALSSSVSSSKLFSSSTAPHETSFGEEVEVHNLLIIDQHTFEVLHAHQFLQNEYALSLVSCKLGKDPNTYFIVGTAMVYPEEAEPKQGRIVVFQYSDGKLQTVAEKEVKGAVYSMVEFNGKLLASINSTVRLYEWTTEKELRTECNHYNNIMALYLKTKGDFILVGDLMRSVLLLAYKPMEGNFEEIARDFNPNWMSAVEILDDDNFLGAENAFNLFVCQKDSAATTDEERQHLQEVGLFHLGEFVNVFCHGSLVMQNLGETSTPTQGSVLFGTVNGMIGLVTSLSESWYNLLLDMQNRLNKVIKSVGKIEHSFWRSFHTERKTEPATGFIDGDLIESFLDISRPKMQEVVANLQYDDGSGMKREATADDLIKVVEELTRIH

The compound `CNc1ccc(C(=O)Nc2cc(C)cc(C3CC3)n2)c(NCCCCCNC(=O)CN2CCN(c3ccc(Nc4ncc5c(C)c(C(C)=O)c(=O)n(C6CCCC6)c5n4)nc3)CC2)n1` [CPD-53, 2-((5-(2-(4-(6-((6-Acetyl-8-cyclopentyl-5-methyl-7-oxo-7,8-dihydropyrido[2,3-d]pyrimidin-2-yl)amino)pyridin-3-yl)piperazin-1-yl)acetamido)pentyl)amino)-N-(6-cyclopropyl-4-methylpyridin-2-yl)-6-(methylamino)nicotinamide] displayed an inhibition at 0.04 µM of 50 to 80% and an inhibition at 0.2 µM of 50 to 80%.

Consider `CNc1ccc(C(=O)Nc2ccc(N(C)C)nn2)c(NC2CC3(CC(NCC(=O)N4CCN(c5ccc(Nc6ncc7c(C)c(C(C)=O)c(=O)n(C8CCCC8)c7n6)nc5)CC4)C3)C2)n1` (stereo not drawn) [CPD-78, 2-((6-((2-(4-(6-((6-Acetyl-8-cyclopentyl-5-methyl-7-oxo-7,8-dihydropyrido[2,3-d]pyrimidin-2-yl)amino)pyridin-3-yl)piperazin-1-yl)-2-oxoethyl)amino)spiro[3.3]heptan-2-yl)amino)-N-(6-(dimethylamino)pyridazin-3-yl)-6-(methylamino)nicotinamide], for which the inhibition at 0.04 µM is 50 to 80% and the inhibition at 0.2 µM lay in the range of 50 to 80%.

In the case of `CNc1ccc(C(=O)Nc2cc(C(F)(F)F)n(C)n2)c(NC2CC3(CC(NC(=O)CN4CCN(c5ccc(Nc6ncc7c(C)c(C(C)=O)c(=O)n(C8CCCC8)c7n6)nc5)CC4)C3)C2)n1` (stereo not drawn) [CPD-127, 2-((6-(2-(4-(6-((6-Acetyl-8-cyclopentyl-5-methyl-7-oxo-7,8-dihydropyrido[2,3-d]pyrimidin-2-yl)amino)pyridin-3-yl)piperazin-1-yl)acetamido)spiro[3.3]heptan-2-yl)amino)-N-(1-methyl-5-(trifluoromethyl)-1H-pyrazol-3-yl)-6-(methylamino)nicotinamide], the inhibition at 0.04 µM was less than 30% and the inhibition at 0.2 µM was less than 30%.

With `CNc1ccc(C(=O)Nc2ccc(N(C)C)nn2)c(NC2CC(NC(=O)N3CCN(c4ccc(Nc5ncc6c(C)c(C(C)=O)c(=O)n(C7CCCC7)c6n5)nc4)CC3)C2)n1` (stereo not drawn) [CPD-151, 4-(6-((6-acetyl-8-cyclopentyl-5-methyl-7-oxo-7,8-dihydropyrido[2,3-d]pyrimidin-2-yl)amino)pyridin-3-yl)-N-(3-((3-((6-(dimethylamino)pyridazin-3-yl)carbamoyl)-6-(methylamino)pyridin-2-yl)amino)cyclobutyl)piperazine-1-carboxamide], the inhibition at 0.04 µM lay within 50 to 80% and the inhibition at 0.2 µM is greater than 80%.

`CCc1ccc(C(=O)Nc2cccc(C3CC3)n2)c(NC2CC3(CC(NC(=O)CN4CCN(c5ccc(Nc6ncc7c(C)c(C(C)=O)c(=O)n(C8CCCC8)c7n6)nc5)CC4)C3)C2)n1` (stereo not drawn) [CPD-124, 2-((6-(2-(4-(6-((6-Acetyl-8-cyclopentyl-5-methyl-7-oxo-7,8-dihydropyrido[2,3-d]pyrimidin-2-yl)amino)pyridin-3-yl)piperazin-1-yl)acetamido)spiro[3.3]heptan-2-yl)amino)-N-(6-cyclopropylpyridin-2-yl)-6-ethylnicotinamide] showed an inhibition at 0.04 µM of 30 to 50% and an inhibition at 0.2 µM of 30 to 50%.

The compound `CNc1ccc(C(=O)Nc2ccc(N(C)C)nn2)c(NC2CC3(C2)CC(OC(C)(C)C(=O)N2CCN(c4ccc(Nc5ncc6c(C)c(C(C)=O)c(=O)n(C7CCCC7)c6n5)nc4)CC2)C3)n1` (stereo not drawn) [CPD-216, 2-((6-((1-(4-(6-((6-acetyl-8-cyclopentyl-5-methyl-7-oxo-7,8-dihydropyrido[2,3-d]pyrimidin-2-yl)amino)pyridin-3-yl)piperazin-1-yl)-2-methyl-1-oxopropan-2-yl)oxy)spiro[3.3]heptan-2-yl)amino)-N-(6-(dimethylamino)pyridazin-3-yl)-6-(methylamino)nicotinamide] yielded an inhibition at 0.04 µM of 30 to 50% and an inhibition at 0.2 µM of 50 to 80%.

Compound `CNc1ccc(C(=O)Nc2ccc(N)nn2)c(NCCCCCNC(=O)CN2CCN(c3ccc(Nc4ncc5c(C)c(C(C)=O)c(=O)n(C6CCCC6)c5n4)nc3)CC2)n1` [CPD-104, 2-((5-(2-(4-(6-((6-Acetyl-8-cyclopentyl-5-methyl-7-oxo-7,8-dihydropyrido[2,3-d]pyrimidin-2-yl)amino)pyridin-3-yl)piperazin-1-yl)acetamido)pentyl)amino)-N-(6-aminopyridazin-3-yl)-6-(methylamino)nicotinamide] displayed an inhibition at 0.04 µM of less than 30% and an inhibition at 0.2 µM of less than 30%.

The compound `CNc1ccc(C(=O)Nc2cn(C)c(C)n2)c(NC2CC3(CC(NC(=O)CN4CCN(c5ccc(Nc6ncc7c(C)c(C(C)=O)c(=O)n(C8CCCC8)c7n6)nc5)CC4)C3)C2)n1` (stereo not drawn) [CPD-179, 2-((6-(2-(4-(6-((6-acetyl-8-cyclopentyl-5-methyl-7-oxo-7,8-dihydropyrido[2,3-d]pyrimidin-2-yl)amino)pyridin-3-yl)piperazin-1-yl)acetamido)spiro[3.3]heptan-2-yl)amino)-N-(1,2-dimethyl-1H-imidazol-4-yl)-6-(methylamino)nicotinamide] had an inhibition at 0.04 µM of 50 to 80% and an inhibition at 0.2 µM of 50 to 80%.

In the case of `CNc1ccc(C(=O)Nc2ccc(C3CC3)nc2)c(NC2CC3(CC(NC(=O)CN4CCN(c5ccc(Nc6ncc7c(C)c(C(C)=O)c(=O)n(C8CCCC8)c7n6)nc5)CC4)C3)C2)n1` (stereo not drawn) [CPD-74, 2-((6-(2-(4-(6-((6-Acetyl-8-cyclopentyl-5-methyl-7-oxo-7,8-dihydropyrido[2,3-d]pyrimidin-2-yl)amino)pyridin-3-yl)piperazin-1-yl)acetamido)spiro[3.3]heptan-2-yl)amino)-N-(6-cyclopropylpyridin-3-yl)-6-(methylamino)nicotinamide], the inhibition at 0.04 µM is less than 30% and the inhibition at 0.2 µM is less than 30%.

In turn, `CNc1ccc(C(=O)Nc2ccc(N(C)C)nn2)c(NC2CN(C(=O)CN3CCN(c4ccc(Nc5ncc6c(C)c(C(C)=O)c(=O)n(C7CCCC7)c6n5)nc4)CC3)C2)n1` [CPD-187, 2-((1-(2-(4-(6-((6-acetyl-8-cyclopentyl-5-methyl-7-oxo-7,8-dihydropyrido[2,3-d]pyrimidin-2-yl)amino)pyridin-3-yl)piperazin-1-yl)acetyl)azetidin-3-yl)amino)-N-(6-(dimethylamino)pyridazin-3-yl)-6-(methylamino)nicotinamide] came in with an inhibition at 0.04 µM of less than 30% and an inhibition at 0.2 µM of 50 to 80%.

Compound `CC(=O)c1c(C)c2cnc(Nc3ccc(N4CCN(CC(=O)NCCC5CC(Nc6cc(Cl)ccc6C(=O)Nc6ccc(C)c(C7CC7)n6)C5)CC4)cn3)nc2n(C2CCCC2)c1=O` (stereo not drawn) [CPD-255, 2-((3-(2-(2-(4-(6-((6-Acetyl-8-cyclopentyl-5-methyl-7-oxo-7,8-dihydropyrido[2,3-d]pyrimidin-2-yl)amino)pyridin-3-yl)piperazin-1-yl)acetamido)ethyl)cyclobutyl)amino)-4-chloro-N-(6-cyclopropyl-5-methylpyridin-2-yl)benzamide] came in with an inhibition at 0.04 µM of less than 30% and an inhibition at 0.2 µM of 50 to 80%.

In turn, `CC(=O)c1c(C)c2cnc(Nc3ccc(N4CCN(CC(=O)NC5CC6(C5)CC(Nc5nc(C)ccc5C(=O)Nc5cccc(C7CC7)n5)C6)CC4)cn3)nc2n(C2CCCC2)c1=O` (stereo not drawn) [CPD-120, 2-((6-(2-(4-(6-((6-Acetyl-8-cyclopentyl-5-methyl-7-oxo-7,8-dihydropyrido[2,3-d]pyrimidin-2-yl)amino)pyridin-3-yl)piperazin-1-yl)acetamido)spiro[3.3]heptan-2-yl)amino)-N-(6-cyclopropylpyridin-2-yl)-6-methylnicotinamide] returned an inhibition at 0.04 µM of less than 30% and an inhibition at 0.2 µM of 30 to 50%.

The values are drawn from US20260297081A1, “COMPOUNDS AND METHODS OF TREATING CANCERS” (Cullgen Inc., priority 2023, published 2026).
